This assay addresses T1, CTC1_C584 (Homo sapiens, UniProt Q2NKJ3).
T1 construct: endogenous in cells; host or cells: 22Rv1
T1 sequence (Q2NKJ3 1-1217): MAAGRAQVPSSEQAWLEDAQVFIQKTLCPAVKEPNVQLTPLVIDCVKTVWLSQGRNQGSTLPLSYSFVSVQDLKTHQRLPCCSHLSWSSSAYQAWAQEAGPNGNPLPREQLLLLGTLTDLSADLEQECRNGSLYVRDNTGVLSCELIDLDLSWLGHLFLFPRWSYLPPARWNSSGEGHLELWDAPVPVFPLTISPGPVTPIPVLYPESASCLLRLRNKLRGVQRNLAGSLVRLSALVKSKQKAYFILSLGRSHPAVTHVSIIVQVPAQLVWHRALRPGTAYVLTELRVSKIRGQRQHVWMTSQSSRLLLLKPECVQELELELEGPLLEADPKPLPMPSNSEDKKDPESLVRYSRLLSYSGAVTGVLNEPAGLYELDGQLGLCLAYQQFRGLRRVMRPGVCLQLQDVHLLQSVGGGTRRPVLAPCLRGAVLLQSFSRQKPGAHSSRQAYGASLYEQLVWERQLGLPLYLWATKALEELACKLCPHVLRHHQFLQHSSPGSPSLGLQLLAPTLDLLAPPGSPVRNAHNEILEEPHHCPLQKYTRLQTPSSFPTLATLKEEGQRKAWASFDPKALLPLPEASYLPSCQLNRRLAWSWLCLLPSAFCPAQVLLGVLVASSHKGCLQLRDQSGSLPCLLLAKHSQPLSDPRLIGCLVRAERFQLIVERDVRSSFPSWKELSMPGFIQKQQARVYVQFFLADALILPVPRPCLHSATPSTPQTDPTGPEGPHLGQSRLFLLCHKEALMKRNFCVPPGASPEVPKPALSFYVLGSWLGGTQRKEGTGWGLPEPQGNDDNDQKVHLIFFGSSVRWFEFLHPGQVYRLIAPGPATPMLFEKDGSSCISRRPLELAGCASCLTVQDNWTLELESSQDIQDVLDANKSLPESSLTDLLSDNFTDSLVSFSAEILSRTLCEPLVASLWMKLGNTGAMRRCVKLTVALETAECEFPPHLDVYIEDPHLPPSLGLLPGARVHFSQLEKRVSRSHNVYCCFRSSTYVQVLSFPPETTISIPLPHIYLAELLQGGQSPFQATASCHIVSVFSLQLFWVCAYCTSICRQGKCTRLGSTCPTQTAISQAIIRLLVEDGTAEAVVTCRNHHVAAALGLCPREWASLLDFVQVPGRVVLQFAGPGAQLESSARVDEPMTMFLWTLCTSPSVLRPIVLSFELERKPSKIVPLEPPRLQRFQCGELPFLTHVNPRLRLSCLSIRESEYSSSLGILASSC
The assay can be described thus: IA-DTB cysteine engagement. Format: binding. The conditions noted are these: 22Rv1 cells, 20 μM probe, 1 h, relative to DMSO. The gist of the method:
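Probe-exposed cells were lysed, IA-DTB-labeled, trypsinized and streptavidin-enriched. Multiplexed TMT quantitation gave engagement ratios versus DMSO, with non-tryptic peptides excluded and intensities normalized to median summed signal.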

For `C=CC(=O)N1C[C@H](c2ccc(Br)cc2)[C@H]1C(=O)Nc1cccc2cccnc12` [MY-3A, (2S,3S)-1-acryloyl-3-(4-bromophenyl)-N-(quinolin-8-yl)azetidine-2-carboxamide], the “% engagement CTC1_C584” value is recorded as 23.5%.

Turning to `C=CC(=O)N1C[C@@H](c2ccc(Br)cc2)[C@H]1C(=O)Nc1cccc2cccnc12` [MY-1A, (2S,3R)-1-acryloyl-3-(4-bromophenyl)-N-(quinolin-8-yl)azetidine-2-carboxamide], the “% engagement CTC1_C584” value is given as 20.25%.

On to `C=CC(=O)N1C[C@H](c2ccc(Br)cc2)[C@@H]1C(=O)Nc1cccc2cccnc12` [MY-1B, (2R,3S)-1-acryloyl-3-(4-bromophenyl)-N-(quinolin-8-yl)azetidine-2-carboxamide], for which the “% engagement CTC1_C584” value is given as 37.25%.

Consider `C=CC(=O)N1C[C@H](c2ccc(Br)cc2)[C@H]1C(=O)Nc1cccc2cccnc12` [MY-3B, (2S,3S)-1-acryloyl-3-(4-bromophenyl)-N-(quinolin-8-yl)azetidine-2-carboxamide], for which the “% engagement CTC1_C584” value was 66.25%.

These data come from US20250034216A1, “STEREOSELECTIVE COVALENT LIGANDS FOR ONCOGENIC AND IMMUNOLOGICAL PROTEINS” (The Scripps Research Institute, priority 2021, published 2025).
